Laboratory results published in patent US20230139445A1, “BACTERIAL CELLS WITH IMPROVED TOLERANCE TO DIACIDS” (priority 2016, published 2023).
“And” between values parts separate entries of the source, which are not always exact repeats. Equal values may be shown once.

Columns and labels:
Format in all cases: cell-based
[1] = test system: Escherichia coli K-12 MG1655 knockout mutants; experiment: Growth Profiler growth screening of K-12 MG1655 single, double and triple knockout mutants in glutaric or adipic acid
[2] = test system: Escherichia coli K-12 MG1655 evolved isolates and knockout mutants; experiment: Biolector growth screening of evolved isolates and reconstructed (knockout) mutants in glutaric or adipic acid
Experimental: Biological triplicate cultures of each strain were grown to saturation overnight in 96 well deepwell plates containing 300 μL M9+1% glucose. The next day, cells were diluted 1:10 in deionized water in a clear 96 well plate and the OD600 was measured on a BioTek plate reader. 48 well FlowerPlates containing a final volume of 1.4 mL of M9+1/o glucose (plus relevant chemical) were inoculated to OD600 0.03 (with plate reader pathlength, 200 μL volume) with the overnight culture and sealed with Breathseal film. Light backscatter intensity was monitored in a Biolector microbioreactor system at 37° C. with 1000 rpm shaking.
Each re-sequenced isolate was characterized using the Biolector system for growth at the screening concentration of chemical (47.5 g/L glutaric acid or 50 g/L adipic acid) in biological triplicates.

[3] = test system: Escherichia coli K-12 MG1655; experiment: Screening for tolerance in wild-type cells: growth in varying concentrations of neutralized diacid, Biolector; settings: for tlag (lag time), mean / μ (growth rate), mean: neutralized with sodium hydroxide
How it was run: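 Mid-exponential cells (back-diluted to OD600 0.7) inoculated into M9 + 1% glucose containing varying concentrations of glutaric or adipic acid neutralized to pH 7.0 with NaOH. Growth monitored in a Biolector microbioreactor at 37 °C, 1000 rpm shaking.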

[4] = strain MG1655, M9 + 25 g/L adipate (neutralized)
[5] = strain MG1655, M9 + 50 g/L adipate (neutralized)
[6] = strain MG1655 kgtP::kan, M9 + 25 g/L adipate (neutralized)
[7] = strain MG1655 kgtP::kan, M9 + 50 g/L adipate (neutralized)
[8] = strain MG1655 ΔkgtP proV::kan, M9 + 25 g/L adipate (neutralized)
[9] = strain MG1655 ΔkgtP pstS::kan, M9 + 25 g/L adipate (neutralized)
[10] = strain MG1655 ΔkgtP pstS::kan, M9 + 50 g/L adipate (neutralized)
[11] = strain MG1655 ΔkgtP sspA::kan, M9 + 25 g/L adipate (neutralized)
[12] = strain MG1655 ΔkgtP ΔproV nagC::kan, M9 + 25 g/L adipate (neutralized)
[13] = strain MG1655 ΔkgtP ΔproV nagC::kan, M9 + 50 g/L adipate (neutralized)
[14] = strain ADIP1-1, M9 + 50 g/L adipic acid (neutralized with sodium hydroxide)
[15] = strain ADIP1-9, M9 + 50 g/L adipic acid (neutralized with sodium hydroxide)
[16] = strain ADIP2-5, M9 + 50 g/L adipic acid (neutralized with sodium hydroxide)
[17] = strain ADIP2-6, M9 + 50 g/L adipic acid (neutralized with sodium hydroxide)
[18] = strain ADIP2-10, M9 + 50 g/L adipic acid (neutralized with sodium hydroxide)
[19] = strain ADIP3-2, M9 + 50 g/L adipic acid (neutralized with sodium hydroxide)
[20] = strain ADIP3-4, M9 + 50 g/L adipic acid (neutralized with sodium hydroxide)
[21] = strain ADIP3-8, M9 + 50 g/L adipic acid (neutralized with sodium hydroxide)
[22] = strain ADIP4-8, M9 + 50 g/L adipic acid (neutralized with sodium hydroxide)
[23] = strain ADIP5-2, M9 + 50 g/L adipic acid (neutralized with sodium hydroxide)
[24] = strain ADIP5-6, M9 + 50 g/L adipic acid (neutralized with sodium hydroxide)
[25] = strain ADIP6-3, M9 + 50 g/L adipic acid (neutralized with sodium hydroxide)
[26] = strain ADIP6-9, M9 + 50 g/L adipic acid (neutralized with sodium hydroxide)
[27] = strain ADIP6-10, M9 + 50 g/L adipic acid (neutralized with sodium hydroxide)
[28] = strain ADIP7-2, M9 + 50 g/L adipic acid (neutralized with sodium hydroxide)
[29] = strain ADIP7-5, M9 + 50 g/L adipic acid (neutralized with sodium hydroxide)
[30] = strain ADIP8-3, M9 + 50 g/L adipic acid (neutralized with sodium hydroxide)
[31] = strain ADIP8-7, M9 + 50 g/L adipic acid (neutralized with sodium hydroxide)
[32] = strain ADIP8-10, M9 + 50 g/L adipic acid (neutralized with sodium hydroxide)
[33] = strain MG1655-1, M9 + 50 g/L adipic acid (neutralized with sodium hydroxide)

O=C(O)CCCCC(=O)O [adipic acid]
mean growth rate μ [1, 4]: 0.467 h⁻¹ | mean lag time tlag [1, 4]: 6.9 h | mean growth rate μ [1, 5]: 0.115 h⁻¹ | mean lag time tlag [1, 5]: 25.7 h | mean growth rate μ [1, 6]: 0.534 h⁻¹ | mean lag time tlag [1, 6]: 6.4 h | mean growth rate μ [1, 7]: 0.192 h⁻¹ | mean lag time tlag [1, 7]: 17.5 h | mean growth rate μ [1, 8]: 0.583 h⁻¹ | mean lag time tlag [1, 8]: 6.2 h | mean growth rate μ [1, 9]: 0.465 h⁻¹ | mean lag time tlag [1, 9]: 7.6 h | mean growth rate μ [1, 10]: 0.139 h⁻¹ | mean lag time tlag [1, 10]: 21.3 h | mean growth rate μ [1, 11]: 0.525 h⁻¹ | mean lag time tlag [1, 11]: 6.8 h | mean lag time tlag ([1]; strain MG1655 ΔkgtP sspA::kan, M9 + 50 g/L adipate (neutralized)): 49.2 h | mean growth rate μ [1, 12]: 0.501 h⁻¹ | mean lag time tlag [1, 12]: 6.8 h | mean growth rate μ [1, 13]: 0.213 h⁻¹ | mean lag time tlag [1, 13]: 19.7 h | mean growth rate μ [2, 14]: 0.315 h⁻¹ | mean lag time tlag [2, 14]: 16.6 h | mean growth rate μ [2, 15]: 0.274 h⁻¹ | mean lag time tlag [2, 15]: 5.8 h | mean growth rate μ [2, 16]: 0.332 h⁻¹ | mean lag time tlag [2, 16]: 20.1 h | mean growth rate μ [2, 17]: 0.337 h⁻¹ | mean lag time tlag [2, 17]: 22.1 h | mean growth rate μ [2, 18]: 0.326 h⁻¹ | mean lag time tlag [2, 18]: 20.8 h | mean growth rate μ [2, 19]: 0.295 h⁻¹ | mean lag time tlag [2, 19]: 16.6 h | mean growth rate μ [2, 20]: 0.305 h⁻¹ | mean lag time tlag [2, 20]: 23.3 h | mean growth rate μ [2, 21]: 0.295 h⁻¹ | mean lag time tlag [2, 21]: 20.1 h | mean growth rate μ [2, 22]: 0.332 h⁻¹ | mean lag time tlag [2, 22]: 6.8 h | mean growth rate μ [2, 23]: 0.401 h⁻¹ | mean lag time tlag [2, 23]: 4.7 h | mean growth rate μ [2, 24]: 0.370 h⁻¹ | mean lag time tlag [2, 24]: 14.4 h | mean growth rate μ [2, 25]: 0.280 h⁻¹ | mean lag time tlag [2, 25]: 6.5 h | mean growth rate μ [2, 26]: 0.279 h⁻¹ | mean lag time tlag [2, 26]: 6.8 h | mean growth rate μ [2, 27]: 0.284 h⁻¹ | mean lag time tlag [2, 27]: 7.1 h | mean growth rate μ [2, 28]: 0.189 h⁻¹ | mean lag time tlag [2, 28]: 7.6 h | mean growth rate μ [2, 29]: 0.292 h⁻¹ | mean lag time tlag [2, 29]: 19.3 h | mean growth rate μ [2, 30]: 0.201 h⁻¹ | mean lag time tlag [2, 30]: 6.0 h | mean growth rate μ [2, 31]: 0.206 h⁻¹ | mean lag time tlag [2, 31]: 7.2 h | mean growth rate μ [2, 32]: 0.200 h⁻¹ | mean lag time tlag [2, 32]: 6.8 h | mean growth rate μ [2, 33]: 0.133 h⁻¹ | mean lag time tlag [2, 33]: 21.4 h | tlag (lag time), mean ([3]; 10 g/L): 1.0 h | μ (growth rate), mean ([3]; 10 g/L, M9+1% glucose, 37° C): 0.575 h⁻¹ | tlag (lag time), mean ([3]; 20 g/L): 1.3 h | μ (growth rate), mean ([3]; 20 g/L): 0.494 h⁻¹ | tlag (lag time), mean ([3]; 30 g/L): 1.8 h | μ (growth rate), mean ([3]; 30 g/L): 0.367 h⁻¹ | tlag (lag time), mean ([3]; 40 g/L): 4.0 h | μ (growth rate), mean ([3]; 40 g/L): 0.263 h⁻¹ | tlag (lag time), mean ([3]; 50 g/L): 2.4 h | μ (growth rate), mean ([3]; 50 g/L): 0.120 h⁻¹ | tlag (lag time), mean ([3]; 75 g/L): 27 h and 27.2 h | μ (growth rate), mean ([3]; 75 g/L): 0.203 h⁻¹ | μ (growth rate), mean ([3]; 100 g/L): 0.000 h⁻¹ | maximum measured concentration at which exponentially growing K-12 MG1655 can grow ([3]; neutralized diacid in M9+1% glucose): 75 g/L
